Data set [1] relates to Wnt/β-catenin signaling. Put plainly: Luciferase reporter assay (Super8XTOPFlash) for Wnt/β-catenin signaling in HEK293 cells. It counts as cell-based. The following applies: 24 h; for EC50: Homo sapiens, Wnt3A plasmid-transfected HEK293 cells, 30-30,000 nM, mean and SD of 3-7 independent experiments; for Wnt reporter activity / activation of Wnt/β-catenin signaling: HEK293 cells. The procedure:
(§1) (A) structures of niciosamide and CI-994; (B) HEK293 cells were transfected with Super8XTOPFlash and β galactosidase vectors along with Wnt3A or control vector. After 24 hours incubation, cells were treated with CI-994 at the indicated concentration for 24 hr. The luciferase activity was then measured and normalized to the activity of the β-galactosidase. (C) HT1080 cells stably transduced LRP6 with HA tag were treated with niciosamide and CI-994 at the indicated concentrations for 24 h. The levels of HA-LRP6 were examined by Western blot with anti-HA antibody. (D) Western blots showing the depletion of LRP6 after 2 days of transiently transfection of 50 nM LRP6 siRNA in HEK293 cells. ON-TARGETplus double-stranded siRNA oligomers against human LRP6 and non-specific scrambled siRNA control (Stealth RNAi™ siRNA Negative Control, Med GC) were purchased from Thermo Scientific. siRNA LRP6-1, siRNA LRP6-2 and control siRNA were Thermo Scientific catalog numbers J-003845-09, J-003845-11 and 12935300, respectively. (E) HEK293 cells were transfected with LRP6 siRNAs, and after 8 h incubation were further transfected with Super8XTOPFlash construct and β galactosidase-expressing vector. After 24 h incubation, the cells were treated with CI-994 (16 μM) for 24 h. The luciferase activity was then measured and normalized to β-galactosidase activity. All the values are the average of triplicate determinations with the SD values indicated by error bars. **P<0.01 versus corresponding control value.
HEK293 cells were transfected with SuperXTOPFlash and β-galactosidase vectors along with Wnt3A or control vector. After 24 h incubation, cells were treated with 1015 or 1039 at the indicated concentrations for 24 h. The luciferase activity was then measured and normalized to the activity of the β-galactosidase. All the values are the average of triplicate determinations with the SD values indicated by error bars. This experiment is representative of at least three such experiments performed with similar data.
Luciferase reporter assay for Wnt/β-catenin signaling: HEK293 cells were plated into 24-well plates. After overnight culture, the cells were transiently transfected with the Super8XTOPFlash luciferase construct and β-galactosidase-expressing vector along with or without Wnt3A plasmid. After 24 h incubation, cells were treated with each individual compound at the indicated concentrations for 24 h. Cells were then lysed and both luciferase and β-galactosidase activities were determined. The luciferase activity was normalized to the β-galactosidase activity.
HEK293 cells were plated into 24-well plates. After overnight culture, the cells were transiently transfected with the Super8XTOPFlash luciferase construct and β-galactosidase-expressing vector along with the Wnt3A plasmid. After 24 h incubation, the cells were treated with each individual compound at 30-30,000 nM in triplication for 24 h. The cells were then lysed, and luciferase and β-galactosidase activities were determined with the luciferase assay system (Promega, Cat. #E1501) and β-galactosidase assay system (Promega, Cat. #E2000), respectively. The luciferase activity was normalized to the s-galactosidase activity, and the EC50 values were calculated by use of GraphPad software, and shown in the below table. All the EC50 values (mean and SD) are from 3-7 independent experiments.

Data set [2] relates to C2C12 cells. Briefly: Alkaline phosphatase (ALP) activity assay, osteoblastic differentiation of C2C12 cells. It counts as cell-based. The following applies: dose-response 0.1-12.8 μM, 72 h. The procedure:
C2C12 cells were seeded into 24-well plates (1×10^5 cells/well). After culture overnight, the cells were treated with a Wnt activator at 0.8 μM (A) and 1.6 μM (B) for 72 h. The ALP activity was measured by ALP assay kit from AnaSpec (AS-72146). All the values are the average of triple determinations with the s.d. indicated by error bars. *P<0.05, **P<0.01 versus corresponding control value. This experiment is a representation of two such experiments performed with similar data.
C2C12 cells were seeded into 24-well plates (1×10^5 cells/well). After culture overnight, the cells were treated with the noted compounds at 0, 0.1, 0.2, 0.4, 0.8, 1.6, 3.2, 6.4 and 12.8 μM for 72 hours. The ALP activity was measured by ALP assay kit from AnaSpec (AS-72146). All the values are the average of triple determinations with the s.d. indicated by error bars.
Alkaline phosphatase (ALP) activity assay: C2C12 cells in 24-well plates were treated with each individual compound at the indicated concentrations for 72 h. Cells were then harvested for assay of ALP activity with the ALP assay kit (AnaSpec) according to the manufacturers specifications.

The nature of data set [3]: Aqueous (kinetic) solubility assay in PBS pH 7.4. Format: physicochemical. As to conditions: phosphate-buffered saline, 25 °C, pH 7.4, aqueous buffer, kinetic from dmso stock, PBS pH 7.4, 2% DMSO, two hours, assay range 2-200 μM. The procedure:
Aqueous solubility assay: Using a 10 mM stock solution of the compound in 100% DMSO, dilutions were prepared to a theoretical concentration of 200 μM in duplicates in phosphate-buffered saline pH 7.4 with 2% final DMSO. In parallel, compound dilutions in 50% acetonitrile/PBS were prepared to theoretical concentrations of 0 μM (blank), 50 μM, 100 μM and 200 μM with 2% final DMSO to generate calibration curves. The experimental compound dilutions in PBS were further allowed to equilibrate at 25° C. on a thermostatic orbital shaker for two hours and then centrifuged at 14000 rpm, 5 min and filtered through HTS filter plates using a vacuum manifold. The supernatants of test compounds were diluted 2-fold with acetonitrile contained 4% DMSO before measuring. Ondansetron was used as reference compound to control proper assay performance. 200 μl of samples were transferred to 96-well plate and measured in 200-550 nm range with 5 nm step. The effective range of this assay is approximately 2-200 μM and the compounds returning values close to the upper limit of the range may have higher actual solubility (e.g. 5 ? deoxy-5-fluorouddine).

Data set [4] is described as follows: Metabolic stability in mouse liver microsomes. Format: in vitro ADME. The following applies: 2 μM, five time points over 40 min, NADPH. The procedure:
Metabolic stability of several compounds (1009, 1011, 1015, 1020, and 1056) and 2 reference compounds (propranolol and imipramine) were determined in mouse liver microsomes at five time points over 40 min using HPLC-MS. Metabolic stability is defined as the percentage of parent compound lost over time in the presence of a metabolically active test system.
Metabolic stability in mouse liver microsomes: Mouse hepatic microsomes were isolated from pooled, perfused livers of Balb/c male mice according to the standard protocol. The batch of microsomes was tested for quality control using Imipramine, Propranolol and Verapamil as reference compounds. Microsomal incubations were carried out in 96-well plates in 5 aliquots of 40 μL each (one for each time point). Liver microsomal incubation medium contained PBS (100 mM, pH 7.4), MgCl2 (3.3 mM), NADPH (3 mM), glucose-6-phosphate (5.3 mM), glucose-6-phosphate dehydrogenase (0.67 units/ml) with 0.42 mg of liver microsomal protein per ml. Control incubations were performed replacing the NADPH-cofactor system with PBS. Test compound (2 μM, final solvent concentration 1.6%) was incubated with microsomes at 37° C., shaking at 100 rpm. Incubations were performed in duplicates. Five time points over 40 minutes had been analyzed. The reactions were stopped by adding 12 volumes of 90% acetonitrile-water to incubation aliquots, followed by protein sedimentation by centrifuging at 5500 rpm for 3 minutes. […]. Supernatants were analyzed using the HPLC system coupled with tandem mass spectrometer.
The elimination constant (kel), half-life (t1/2) and intrinsic clearance (Clint) were determined in plot of […] versus time, using linear regression analysis: […]
For orientation: Liver microsomes are a subcellular fraction often used to study metabolism.

Data set [5] deals with LRP6. Briefly: Wnt reporter assay in HEK293 cells after LRP6 siRNA knockdown. It counts as cell-based, human. As to conditions: CI-994 16 μM, 1011, 1015, 1023 1 μM, 24 h. The procedure: as §1
(A) HT1080 cells stably transduced with human LRP6 with HA tag were treated with niciosamide (1 μM) and other compounds as noted (1 μM) for 24 hr. The levels of HA-LRP6 were examined by Western blots with anti-HA antibody. All samples were also probed with anti-actin antibody to verify equal loading. This experiment is a representative of two such experiments performed with similar data. (B) N2a cells were treated with 1015 and 1011 at the indicated concentrations for 24 h. The expression levels of LRP6, β-catenin and actin were examined by Western blotting. This experiment is a representative of three such experiments performed with similar data. (C) HEK293 cells were transfected with LRP6 siRNAs, and after 8 h incubation were further transfected with Super8XTOPFlash construct and β galactosidase-expressing vector. ON-TARGETplus double-stranded siRNA oligomers against human LRP6 and non-specific scrambled siRNA control (Stealth RNAi™ siRNA Negative Control, Med GC) were purchased from Thermo Scientific. siRNA LRP6-1, siRNA LRP6-2 and control siRNA were Thermo Scientific catalog numbers J-003845-09, J-003845-11 and 12935300, respectively. […] The luciferase activity was then measured and normalized to β-galactosidase activity. […]

The test system of data set [6] is Wnt/β-catenin signaling. The following applies: cancer cells; cited from earlier work.
[7] abbreviates: read-out: PBS solubility, pH 7.4, μM Exp1.
[8] abbreviates: read-out: PBS solubility, pH 7.4, μM Exp2.
[9] abbreviates: read-out: PBS solubility, pH 7.4, μM Mean.

We go through 19 compounds from patent US20220267271A1, “WNT ACTIVATORS AND METHODS OF USE” (MAYO FOUNDATION FOR MEDICAL EDUCATION AND RESEARCH, priority 2019, published 2022).

In brackets after ≈: the same amount, converted by molar mass. Like-named read-outs stand apart in the source and are kept apart here.

The EC50 is the concentration needed to bring the measured effect to its halfway point. Higher therefore signals lower potency in that assay. Consider `Nc1ccccc1NC(=O)c1ccc(NC(=O)CCN2CCC[C@@H]3CCCC[C@@H]32)cn1` (racemic) [Compound 1059], for which the EC50 in data set [1] was 494 ± 147 nM. For orientation: solubility means how much of the substance goes into solution per volume. `Nc1ccccc1NC(=O)c1ccc(C(=O)NCCN2CCCC3CCCCC32)cn1` (stereo not shown) [Compound 1009] came in with an EC50 in data set [1] of 601 ± 101 nM. Further, the “potency in inducing C2C12 osteoblastic differentiation compared with CI-994” value in data set [2] is listed as “more potent than CI-994”. For the same compound, the solubility at 2 h in data set [3] (setting [7]) is 197 µM (≈ 83 µg/mL); in data set [3] (setting [8]), 191 µM (≈ 80.5 µg/mL); in data set [3] (setting [9]), 194 µM (≈ 81.8 µg/mL). Moreover, the “stability in mouse hepatic microsomal system” value in data set [4] is “moderate stability”. As to `Nc1ccccc1NC(=O)c1ccc(C(=O)NCCN2CCC3(CCCCC3)CC2)cn1` [Compound 1013], the response in data set [1] was half-maximal at 444 ± 36 nM (EC50).

Turning to `Nc1ccccc1NC(=O)c1ccc(C(=O)NCC2CCN2C2CCCC2)cc1` (stereo not shown) [Compound 1021], the response in data set [1] was half-maximal at 1380 ± 643 nM (EC50). In data set [1], `CC1CCCC(C)N1CCC(=O)Nc1ccc(C(=O)Nc2ccccc2N)nc1` (stereo not shown) [Compound 1023] yielded an EC50 of 496 ± 195 nM. In addition, in data set [5], the “effect of knockdown of LRP6 expression on the compound's effect on Wnt/β-catenin signaling” value is recorded as “significantly attenuated”. With `CCN1CCCC1CNC(=O)c1ccc(C(=O)Nc2ccccc2N)nc1` (stereo not shown) [Compound 1028], the concentration for a half-maximal effect (EC50) in data set [1] turned out to be 519 ± 24 nM. On the same count and under the same terms, to `COCCN1CCCC1CNC(=O)c1ccc(C(=O)Nc2ccccc2N)nc1` (stereo not shown) [Compound 1030] belongs 483 ± 40 nM; to `Nc1ccccc1NC(=O)c1ccc(C(=O)NCC2CCCN2CC2CCCCC2)cn1` (stereo not shown) [Compound 1038], 526 ± 268 nM. For the compound `Nc1ccccc1NC(=O)c1ccc(C(=O)NCC2CCCN2CCc2ccccc2)cn1` (stereo not shown) [Compound 1039], in data set [1], the “Wnt reporter activity / activation of Wnt/β-catenin signaling” value (shortened to “Wnt reporter activity / activation”) was “activate” and it took 298 ± 25 nM to reach a half-maximal effect (EC50). In the case of `COc1ccc(CN2CCC2CNC(=O)c2ccc(C(=O)Nc3ccccc3N)nc2)cc1` (stereo not shown) [Compound 1041], in data set [1], the EC50 is 596 ± 79 nM. In turn, `Nc1ccccc1NC(=O)c1ccc(C(=O)NCC2CCN2C2CCCCC2)cn1` (stereo not shown) [Compound 1045] showed a concentration giving a half-maximal response (EC50) in data set [1] of 507 ± 128 nM.

In data set [1], `Nc1ccccc1NC(=O)c1ccc(C(=O)NCC2CCCN2C2CCCCC2)cn1` (stereo not shown) [Compound 1046] yielded a concentration giving a half-maximal response (EC50) of 532 ± 38 nM. `Nc1ccccc1NC(=O)c1ccc(C(=O)NCC2CCN2C2CCCCCC2)cn1` (stereo not shown) [Compound 1050] registered an EC50 in data set [1] of 408 ± 77 nM. With `CC(=O)Nc1ccc(C(=O)Nc2ccccc2N)nc1` [Compound 1056], the “stability in mouse hepatic microsomal system” value in data set [4] is reported as “good stability”. As for `Cc1cc(Cl)ccc1OCCCC(=O)NO` [Droxinostat, reference compound], the “Wnt reporter activity / activation” value in data set [1] is given as “unable to activate”.

As to `Cn1cc(CNCC2CCN(c3ncc(C(=O)NO)cn3)CC2)c2ccccc21` [JNJ-26481585, reference compound], the “Wnt reporter activity / activation” value in data set [1] is “unable to activate”. As for `O=C(Nc1ccc([N+](=O)[O-])cc1Cl)c1cc(Cl)ccc1O` [Niclosamide, 5-chloro-N-[2-chloro-4-nitrophenyl]-2-hydroxy benzamide], the “Wnt/β-catenin signaling (by inducing LRP6 degradation)” value in data set [6] is recorded as “suppresses”. For `Cc1nccn1CC1CCc2c(c3ccccc3n2C)C1=O` (stereo not shown) [Ondansetron, reference compound], the solubility at 2 h in data set [3] (setting [7]) is 109 µM (≈ 32 µg/mL); in data set [3] (setting [8]), 113 µM (≈ 33.2 µg/mL); in data set [3] (setting [9]) it was 111 µM (≈ 32.6 µg/mL). As for `O=C(CCCCCN1C(=O)c2cccc3cccc(c23)C1=O)NO` [Scriptaid, reference compound], the “Wnt reporter activity / activation” value in data set [1] was “unable to activate”.
